The target of the assay is T1, HDAC6 (Homo sapiens, UniProt Q9UBN7).
T1 sequence (Q9UBN7 1-1215): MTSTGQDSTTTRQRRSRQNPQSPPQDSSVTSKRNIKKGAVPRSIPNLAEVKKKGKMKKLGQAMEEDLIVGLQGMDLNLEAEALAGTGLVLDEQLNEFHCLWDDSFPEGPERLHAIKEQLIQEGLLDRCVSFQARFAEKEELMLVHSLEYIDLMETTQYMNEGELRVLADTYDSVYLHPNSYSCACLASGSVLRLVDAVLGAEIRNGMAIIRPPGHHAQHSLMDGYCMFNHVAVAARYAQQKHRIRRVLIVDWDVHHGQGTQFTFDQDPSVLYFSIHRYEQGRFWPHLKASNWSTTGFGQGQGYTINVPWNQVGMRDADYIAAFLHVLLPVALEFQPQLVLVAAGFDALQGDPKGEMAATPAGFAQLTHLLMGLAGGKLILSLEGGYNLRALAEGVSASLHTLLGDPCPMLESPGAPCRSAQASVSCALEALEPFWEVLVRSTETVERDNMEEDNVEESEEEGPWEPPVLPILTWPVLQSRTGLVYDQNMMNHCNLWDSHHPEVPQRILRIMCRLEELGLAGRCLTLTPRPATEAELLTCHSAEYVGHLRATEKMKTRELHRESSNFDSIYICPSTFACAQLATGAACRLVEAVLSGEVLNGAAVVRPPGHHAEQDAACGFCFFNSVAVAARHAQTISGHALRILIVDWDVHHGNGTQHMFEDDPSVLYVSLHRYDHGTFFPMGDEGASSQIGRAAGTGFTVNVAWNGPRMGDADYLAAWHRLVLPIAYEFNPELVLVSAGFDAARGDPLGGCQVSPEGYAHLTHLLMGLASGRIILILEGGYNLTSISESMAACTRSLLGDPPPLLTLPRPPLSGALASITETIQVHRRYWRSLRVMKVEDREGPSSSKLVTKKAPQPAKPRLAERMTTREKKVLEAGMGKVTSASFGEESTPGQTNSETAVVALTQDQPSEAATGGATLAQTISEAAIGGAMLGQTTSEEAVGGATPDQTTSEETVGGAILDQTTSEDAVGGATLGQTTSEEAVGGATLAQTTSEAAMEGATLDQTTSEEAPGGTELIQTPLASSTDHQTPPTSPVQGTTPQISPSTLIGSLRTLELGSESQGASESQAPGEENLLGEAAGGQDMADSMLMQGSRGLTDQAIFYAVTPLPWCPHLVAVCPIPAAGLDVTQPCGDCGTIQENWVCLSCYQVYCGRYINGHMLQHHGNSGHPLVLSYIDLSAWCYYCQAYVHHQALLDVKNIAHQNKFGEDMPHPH
Kind of assay: Simple Western immunoassay, HDAC6 levels in MM.1S cell lysates. Type of assay: cell-based. Set-up: endogenous in cells; host or cells: MM.1S. The conditions noted are these: MM.1S cells, 10 μM; for reduction of HDAC6 protein levels: 24 h. As to the method: Figure 3 Initial degradation screening of HDAC1 and 6 by DCAF11‐recruiting PROTACs by Simple Western™ immunoassay analysis of MM.1S cell lysates. MM.1S cells were treated with the indicated compound (10 μM) or vehicle (DMSO) for 24 h. […] Bottom: Representative images from a total of n=3 biological replicates, labeled with spacer type; w/o: without spacer.
2. Biological Experiments […]
The human multiple myeloma cell line MM.1S (CRL-2974) was obtained from American Type Culture Collection (ATCC, Manassas, VA, USA). The semi-adherent cells were cultivated in RPMI 1640 medium (Catalog#21875-034, Gibco, ThermoFisher Scientific Inc., Waltham, MA, USA) supplemented with 10% FBS (PAN Biotech GmbH; Aidenbach, Germany), 100 IU/mL penicil lin, 0.1 mg/mL streptomycin (PAN Biotech GmbH) and 1 mM sodium pyruvate (ThermoFisher Scientific Inc.). […]
(PAN Biotech GmbH). All cells were cultured at 37 °C in a 5% CO2 atmosphere. Incubation times, as part of assay protocols, were performed under these conditions as well. […]
2.2. Simple Western™ Immunoassay
For the cell lysates, MM.1S (0.5 × 10^6 cells/mL) or U-87MG (0.18 × 10^6 cells/mL) cells were seeded and incubated with the indicated concentration of compound or vehicle (DMSO) for the given time. […]
SDS, 0.5% deoxycholate; Catalog# FNN0011, Thermo Fisher Scientific Inc., Waltham, MA, USA) with addition of Halt Protease Inhibitor Cocktail (100×) (Catalog# 78429, Life Technologies GmbH, Carlsbad, CA, USA) and phenylmethanesulfonyl fluoride (Catalog# 10837091001, Sigma-Aldrich, St.
Louis, MO, USA) according to manufacturer´s instructions. Protein content was determined by Pierce™ BCA Protein Assay Kit (Catalog# 23225, Thermo Fisher Scientific Inc.) according to manufacturer´s guidelines. […]
Fluorescence Separation 8x25 Capillary Cartridges (Catalog# SM-FL004-1, Protein Simple, Bio-Techne, Minneapolis, MN, USA) were used for separation and the Anti-Mouse Detection Module (Catalog# DM-002, Protein Simple) was used for detection with addition of 20x Anti-Rabbit HRP […]
Conjugate (Catalog# 043-426, Protein Simple) according to manufacturer´s instructions. […] Evaluation and quantification was performed with the compass software (6.2.0, Protein Simple). […]
For the cell viability assay the automated pipetting robot system ASSIST PLUS (Model# 4505, Integra Biosciences, Bibertal, Germany) was used. […] The toxicity of compounds was determined after 72 h using the CellTiter-Glo 2.0 Cell Viability Assay (Promega, Madison, WI, USA, #G9242) according to the manufacturer´s protocol. Subsequently, the luminescence was measured using a Tecan Spark (Tecan Group AG, Maennedorf, Swiss) and the half maximal effective concentration (EC50) was determined by plotting dose response curves and nonlinear regression with GraphPad Prism (GraphPad Software, San […]

With `O=CN(CCCCCCCCCCCC(=O)Nc1ccc(C(=O)NCCCCCCC(=O)NO)cc1)C(C(=O)NCc1ccccc1)c1ccc(Cl)c(Cl)c1` (stereo not shown) [Compound 1j-nc], the “effect on HDAC6 protein levels” value (14 h) was “not able to affect the protein levels of HDAC1 and 6”.

Regarding `O=C(CCCCCCNC(=O)c1ccc(NC(=O)CCCCCCCCCCCN(C(=O)CCl)C(C(=O)NCc2ccccc2)c2ccc(Cl)c(Cl)c2)cc1)NO` (stereo not shown) [Compound 1j], the “reduction of HDAC6 protein levels” value was “significant reduction of HDAC6 protein levels”. Moreover, the “time dependent degradation of HDAC6” value (after 6 h) was “significant degradation”.

Take `O=C(CCCCCCNC(=O)c1ccc(N(C(=O)CCl)C(C(=O)NCc2ccccc2)c2ccc(Cl)c(Cl)c2)cc1)NO` (stereo not shown) [Compound 2]: the “reduction of HDAC6 protein levels” value is listed as “significant reduction of HDAC6 protein levels”.

Source of the values: paper PMC12091851, “Replacing a Cereblon Ligand by a DDB1 and CUL4 Associated Factor 11 (DCAF11) Recruiter Converts a Selective Histone Deacetylase 6 PROTAC into a Pan‐Degrader” (Chemmedchem, 2025).
